Assay results published in patent US10646442B2, “Liposome composition and method for producing same” (FUJIFILM Corporation, priority 2014, dated 2020).
Counter-ions that a name gives are not always drawn.

Experiments:
[1] = Retentivity in blood (free pemetrexed concentration in blood plasma); type: in vivo; settings: mouse, intravenous, 6 mg/kg in terms of drug amount, tail vein injection, male C3H mice
Experimental: Further, the liposome composition of Example 10 at a dose of 6 mg/kg in terms of drug amount was administered via tail vein injection to 8-week old male C3H mice under the non-fasting conditions. Blood was collected at 15 minutes, 1 hour, 4 hours, and 24 hours after the administration was completed, and the free pemetrexed concentration in blood plasma was quantified to calculate a T1/2.

[2] = system: Capan-1 (human pancreatic cancer cell line); assay: In vitro cancer cell growth inhibition; type: cell-based; settings: Capan-1, cultured 144 hours, Luminescent Cell Viability Assay, read-out: IC50 (drug effect concentration that inhibits 50% of cancer cell growth)
Experimental: 2×10^3 cells/[…]/well of Capan-1 (human pancreatic cancer cell line) were seeded onto a 96-well plate. Subsequently, a free drug (gemcitabine hydrochloride) solution, and a drug encapsulated in the liposome compositions of Example 4 and Comparative Examples 4 and 5 were added at each concentration, and cultured until after 144 hours. The cell viability was calculated from the amount of luminescence obtained by a Luminescent Cell Viability Assay after the completion of the culture. In addition, a drug effect concentration (IC50) that inhibits 50% of cancer cell growth was determined.

[3] = reference value for free drug in mice; not among the administered groups; cited from earlier work

| SMILES | half-life [1] [h] | IC50 [2] [nM] | T1/2 of free gemcitabine in mice [3] [h] |
| --- | --- | --- | --- |
| Nc1nc2[nH]cc(CCc3ccc(C(=O)N[C@@H](CCC(=O)O)C(=O)O)cc3)c2c(=O)[nH]1 [drug aqueous solution, pemetrexed disodium heptahydrate] | 2 |  |  |
| Nc1ccn([C@@H]2O[C@H](CO)[C@@H](O)C2(F)F)c(=O)n1 [free drug, gemcitabine hydrochloride] |  | 7 | 0.7 |
